Results: patent publication US12281116B2, “HTT modulators for treating Huntington's disease” (CHDI Foundation, Inc., priority 2021, dated 2025)

Each compound was assayed on tHTT (total HTT protein) (assay: Time-resolved FRET (HTRF) assay: Q48-Huntingtin and total-Huntingtin detection in GEN020 hESC lysates). Details: tHTT activity; human embryonic stem cells GEN020 (mutant 48 Q repeat allele); test compounds 48 hours; read-out: HTT Lowering Activity (HTRF).
Assay type: cell-based
Description: Time-resolved FRET assay: Q48-Huntingtin and total-Huntington detection Detection of endogenous HTT protein in cell lysates was performed using a protocol adapted from Weiss et al. See Weiss A et al. (2009). Single-step detection of mutant huntingtin in animal and human tissues: a bioassay for Huntington's disease. Anal. Biochem. 395(1): 8-15.
The multiplex assay was performed in human embryonic stem cells (GEN020 hESCs with mutant 48 Q repeat allele) which have been derived by Genea Biocells from human blastocysts of HD donors. Bradley C K et al. (2011). Derivation of Huntington's disease-affected human embryonic stem cell lines, Stem Cells Dev. 2011 March; 20(3):495-502. Cells were plated into 384-well collagen coated plates (10,000 cells per well) and left to adhere for 24 hours, test compounds were then added for 48 hours (37° C., 5% CO2), cells were then lysed, and the lysate was transferred to a black 384-well assay plate.
The assay plate included a combination of HTRF labelled monoclonal antibodies added to recognize discreet areas of the HTT protein, the Tb “donor” antibody (2B7-Tb: 0.2 ng/well) recognizes a sequence at the N-terminus of the protein, an Alexa488 “acceptor 1” antibody (MW1-Alexa488: 30 ng/well) recognizes an area in the polyQ region, whereas a d2 “acceptor 2” antibody (MAB2166-d2: 6 ng/well) recognizes a sequence beyond the polyQ region. These detection reagents were incubated with the cell lysate at room temperature for 4-6 hours before having their fluorescence quantified at 615 nm (donor) and 535 nm and 665 nm (acceptor 1 and 2 respectively). The donor/acceptor ratio between these signals indicated the relative quantities of mHTT and tHTT.
Results for various compounds described herein are provided in the Tables below. tHTT activity in this assay is categorized as 10-20 μM (−); 1-10 μM (+); 0.5-1 μM (++); 0.1-0.5 μM (+++); <0.1 μM (++++).
For `Cc1cn2cc(NC(=O)c3cnc(N4CC[C@H](NC5CC5)C4=O)cn3)cc(F)c2n1` [Example 44, (S)-5-(3-(cyclopropylamino)-2-oxopyrrolidin-1-yl)-N-(8-fluoro-2-methylimidazo[1,2-a]pyridin-6-yl)pyrazine-2-carboxamide], the IC50 was 100 to 500 nM.
With `C#CCOc1cc2nn(C)cc2cc1NC(=O)c1cnc(N2CC[C@@H](NC3CC3)C2)cn1` [Example 5, (R)-5-(3-(cyclopropylamino)pyrrolidin-1-yl)-N-(2-methyl-6-(prop-2-yn-1-yloxy)-2H-indazol-5-yl)pyrazine-2-carboxamide] the IC50 was 100 to 500 nM.
With `Cn1cc2cc(NC(=O)c3cnc(N4CC[C@@H](NC5CC5)C4)cn3)c(OC3CCOCC3)cc2n1` [Example 2, (R)-5-(3-(cyclopropylamino)pyrrolidin-1-yl)-N-(2-methyl-6-((tetrahydro-2H-pyran-4-yl)oxy)-2H-indazol-5-yl)pyrazine-2-carboxamide] the IC50 was 500 to 1000 nM.
In the case of `Cc1cn2cc(NC(=O)c3cnc(-n4cc(CNC5CC5)cn4)cn3)cc(F)c2n1` [Example 46, 5-(4-((Cyclopropylamino)methyl)-1H-pyrazol-1-yl)-N-(8-fluoro-2-methylimidazo[1,2-a]pyridin-6-yl)pyrazine-2-carboxamide], the IC50 is reported as 500 to 1000 nM.
`Cc1cn2cc(NC(=O)c3cnc(N4CC(CN5CC(OCC(=O)NCCC6(CCN=[N+]=[N-])N=N6)C5)C4)cn3)cc(F)c2n1` [Example 45, 5-[3-[[3-[2-[2-[3-(2-azidoethyl)diazirin-3-yl]ethylamino]-2-oxo-ethoxy]azetidin-1-yl]methyl]azetidin-1-yl]-N-(8-fluoro-2-methyl-imidazo[1,2-a]pyridin-6-yl)pyrazine-2-carboxamide] showed an IC50 of 500 to 1000 nM.
Compound `CN[C@@H]1CCN(c2cnc(C(=O)Nc3cn4cc(C)nc4c(F)c3C)cn2)C1` [Example 21, (R)-N-(8-fluoro-2,7-dimethylimidazo[1,2-a]pyridin-6-yl)-5-(3-(methylamino)pyrrolidin-1-yl)pyrazine-2-carboxamide] has an IC50 of 100 to 500 nM.
For `Cc1cn2cc(NC(=O)c3cnc(N4CCC(N(C)C)C4=O)cn3)cc(F)c2n1` (single isomer, unassigned) [Example 39, (R*)-5-(3-(dimethylamino)-2-oxopyrrolidin-1-yl)-N-(8-fluoro-2-methylimidazo[1,2-a]pyridin-6-yl)pyrazine-2-carboxamide], the IC50 was 500 to 1000 nM.
Compound `Cc1nc2c(F)cc(NC(=O)c3cnc(N4CC(CNC(C)C)C4)cn3)cc2o1` [Example 12, N-(4-fluoro-2-methylbenzo[d]oxazol-6-yl)-5-(3-((isopropylamino)methyl)azetidin-1-yl)pyrazine-2-carboxamide] has an IC50 of 100 to 500 nM.
`Cc1cn2cc(NC(=O)c3cnc(N4CC(CNC5CC5)CC4=O)cn3)cc(F)c2n1` (single isomer, unassigned) [Example 40, (R*)-5-(4-((cyclopropylamino)methyl)-2-oxopyrrolidin-1-yl)-N-(8-fluoro-2-methylimidazo[1,2-a]pyridin-6-yl)pyrazine-2-carboxamide] showed an IC50 of 100 to 500 nM.
In the case of `Cc1cn2cc(NC(=O)c3cnc(N4CC5C(C4)C5N4CCCC4)cn3)cc(F)c2n1` (centres unmarked) [Example 32, N-(8-Fluoro-2-methyl-imidazo[1,2-a]pyridin-6-yl)-5-(6-pyrrolidin-1-yl-3-azabicyclo[3.1.0]hexan-3-yl)pyrazine-2-carboxamide], the IC50 is reported as 500 to 1000 nM.
In the case of `Cc1cn2cc(NC(=O)c3cnc(N4CC[C@@H](NC5CC5)C4=O)cn3)cc(F)c2n1` [Example 43, (R)-5-(3-(cyclopropylamino)-2-oxopyrrolidin-1-yl)-N-(8-fluoro-2-methylimidazo[1,2-a]pyridin-6-yl)pyrazine-2-carboxamide], the IC50 is reported as 100 to 500 nM.
`Cc1cn2cc(NC(=O)c3cnc(N4CC5CC5(N)C4)cn3)cc(F)c2n1` (centres unmarked) [Example 28] gave an IC50 of 100 to 500 nM.
`CCNC1C2CN(c3cnc(C(=O)Nc4cn5cc(C)nc5c(OC)n4)cn3)CC21` (centres unmarked) [Example 34, 5-(6-(ethylamino)-3-azabicyclo[3.1.0]hexan-3-yl)-N-(8-methoxy-2-methylimidazo[1,2-a]pyrazin-6-yl)pyrazine-2-carboxamide] gave an IC50 of 100 to 500 nM.
`CN[C@@H]1CCN(c2cnc(C(=O)Nc3cc(Cl)n4nc(C)cc4c3)cn2)C1` [Example 15] gave an IC50 of under 100 nM.
Compound `Cc1cn2cc(NC(=O)c3cnc(N4CC(CNC5CC5)CC4=O)cn3)cc(F)c2n1` (single isomer, unassigned) [Example 41, (S*)-5-(4-((cyclopropylamino)methyl)-2-oxopyrrolidin-1-yl)-N-(8-fluoro-2-methylimidazo[1,2-a]pyridin-6-yl)pyrazine-2-carboxamide] has an IC50 of 500 to 1000 nM.
For `CN[C@@H]1CCN(c2cnc(C(=O)Nc3cc4cn(C)nc4cc3OCc3ccccc3)cn2)C1` [Example 8, (R)-N-(6-(benzyloxy)-2-methyl-2H-indazol-5-yl)-5-(3-(methylamino)pyrrolidin-1-yl)pyrazine-2-carboxamide], the IC50 was under 100 nM.
In the case of `Cc1cc2cc(NC(=O)c3cnc(N4CC[C@@H](CNC5CC5)C4)cn3)cc(Cl)n2n1` [Example 16], the IC50 is reported as 500 to 1000 nM.
